Columns and labels:
[1] = measurements made in tissue phantoms; cited from earlier work
[2] = T1ρ relaxivity in H2^17O doped phosphate buffered saline phantoms; assay type: physicochemical; settings: spin lock amplitude 100 Hz, 1.5T
Procedure: The ability of the sequence to detect changes in H2^17O concentration was measured by imaging six 15 mL conical tubes filled with 1× Phosphate Buffered Saline doped with H2^17O (Isotec, Miamisberg, Ohio) in steps of 5 mM from 20 mM (natural abundance) to 45 mM. These tubes were sealed and placed into a 9 cm jar filled with water. A receive only loop coil was placed around the jar and used in combination with the body transmit coil. Cross-sectional images of the tubes were acquired with a spin lock amplitude of 100 Hz and spin lock times of 200, 400, 600, 800, and 1000 msec. Imaging parameters are: FoV 90 mm^2, ST 5 mm, TR/TE 10.4/5.2 ms, Matrix 128^2, BW 130 Hz/Px, α=180°.
The concentrations of the phantoms were determined experimentally according to the following equation:
[formula] Where fn is the natural abundance [H2^17O], S is the signal from a pixel or ROI with natural abundance (NA) [H2^17O] or [H2^17O] added (^17O) taken as a proton density weighted image to account for coil sensitivity or when T1ρ pre-encoded (T1ρ). R1ρ is the relaxivity due to H2^17O and TSL is the spin lock time.
FIG. 12 provides cross-sectional images of 15 mL conical tubes filled with phosphate buffered saline and doped with increasing amounts of H2^17O to concentrations from 20 mM (natural abundance) to 45 mM (25 mM added).

[3] = Serial arterial blood sampling and ^17O NMR spectroscopy of serum during and after 1 minute of ^17O2 delivery; assay type: in vivo, pig
Procedure: During imaging, arterial blood sampling was performed on several occasions. An optimized protocol was developed and repeated. An arterial catheter was placed under ultrasound guidance into the femoral artery in the large animal fluoroscopy suite. Approximately 2 cc of blood was collected over 3-5 seconds into each Vacutainer Serum Separator Tube (Becton-Dickinson, #367983) at a rate of one sample each 10 seconds for the first 12 samples and then 60 seconds each for six more samples. Four control samples were taken before the experiment began. The tubes used are designed to reseal immediately after needle puncture. Their ability to remain sealed was tested by taking several tubes at random, creating a strong negative pressure inside the tube with a vacuum pump attached to a needle, and then repeated puncture with larger diameter needles than used for blood sampling. The pressure inside the tubes was checked after over a dozen punctures and had changed less than 10%.
A concern is that water ^17O will exchange with ambient CO2 through bicarbonate ion, a very fast reaction when catalyzed by carbonic anhydrase as in whole blood (Mills G A, Urey H C. The Kinetics of Isotopic Exchange between Carbon Dioxide, Bicarbonate Ion, Carbonate Ion and Water. J Am Chem Soc 1940; 62 (5):1019-1026). To minimize this effect, serum was separated by centrifugation soon after the experiment. Tubes were then frozen at −20 C and kept sealed until the time of analysis. Centrifugation places a gel between the serum and red blood cells in these tubes to fully separate the two. This procedure serves to protect the samples in two ways. […]
An 11.7T Bruker DMX400 Avance Spectrometer equipped with a 1H/X nucleus decoupler probe tuned to ^17O was used to measure 1 mL of each sample loaded into 5 mm ID NMR tubes just before analysis. Spectra were recorded without lock at room temp. […]
Blood sampling was performed during scanning on two separate occasions. […] Serum concentration of H2^17O was calculated by integrating the H2^17O peak obtained by ^17O spectroscopy of the blood samples taken at the given time points. […]

pig brain = experiment: Pulsed ^17O2 inhalation (2 breaths, 40% enrichment) with T1ρ-weighted MRI of pig brain at 1.5 Tesla; assay type: in vivo; settings: 70 Kg pig; ventricle signal normalized to whole brain
Procedure: To further test the apparatus 100, a 70 Kg Yorkshire pig was anesthetized with intramuscular doses of ketamine (25 mg/Kg) and xylazine (2.5 mg/Kg) and orally intubated. General anesthesia was maintained throughout the experiment with intravenous doses of ketamine (1-2 mg/Kg/hr) and diazepam (0.5-1 mg/Kg/hr). Once placed in the MRI scanner 114 in the prone position, the endotracheal tube was connected to the circuit and mechanical ventilation commenced in volume control mode with a tidal volume of 16.2 ml/Kg, a respiratory rate of 6 breaths/min, I:E ratio of 1:1 and zero end-expiratory pressure. After collecting baseline images on room air, the source valve was switched to 100% O2. After 5 minutes to allow for denitrogenation, further baseline images were obtained while breathing 100% oxygen. […]
Overlay of the signal decreases, ranging from 0% decrease to 1% decrease, an average of 40-50 seconds after the start of the ^17O2 breaths, as determined by indirect T1ρ imaging with a spin-lock sequence. […]
The time course of arterial ^17O2 concentrations, estimated from a model of alveolar gas dilution (appendix), is shown in FIG. 5a. […] Inspiratory tidal volume is measured from the calibrated output of the inhalation pump 102. […]

SMILES | R1ρ, relaxation enhancement of tissue due to H2^17O [1] | R1ρ(100 Hz) [2] [mM⁻¹ ms⁻¹] | delay between the start of ^17O2 delivery and the start of wash-in in arterial blood ([3]; 19.8 kg pig, second experiment) [s] | delay between the start of ^17O2 delivery and the start of wash-in in arterial blood ([3]; 40.8 kg pig, 80% N2/20% O2 (70% ^17O enriched) for 60 seconds, femoral artery serum) | time when recirculation begins ([3]; arterial blood sampling and analysis of mH2^17O content, pigs) [s] | delay of decrease in scaled signal in the cerebral ventricle after the initial inhalation of ^17O2 (pig brain)
[17OH2] [H2^17O] | 5.91*10^−6 (μmol/g water)^−1 ms^−1 | 1.37e-05 | ~70 | about 90 seconds | 60 to 80 | 
O=O [^17O2] |  |  |  |  |  | about 110 seconds

Source: patent publication US8554305B2, “Method and apparatus for providing pulses inhalation of 17O2 for magnetic resonance imaging of cerebral metabolism” (The Trustees of the University of Pennsylvania, priority 2007, dated 2013)
